Assay results published in patent US8067424B2, “Selective inhibitors for cyclin-dependent kinases” (Emory University, priority 2007, dated 2011).

Experiments:
[1] = biological target: T1, CDK7 complex (CDK7, Cyclin H, MAT1) (Homo sapiens, UniProt P50613); assay: CDK7/CycH/MAT1 trimeric complex kinase assay (PKLight luciferase); format: biochemical; details: 100 nM; mean of three (standard deviation); read-out: CDK7 % remaining kinase activity after incubation with 100 nM of compound
T1 construct: purchased Proqinase GmbH, Germany
Protocol: (§1) Prepared test compounds, prepared at concentrations of 1000, 100, 10, 1 and 0.1 μM. Diluted 1 in 40 in ddH2O and added 1 μl of test compound or DMSO (controls). • 3. Incubated at 30° C. for 30 mins in a water bath. • 4. Added 10 µl of ATP […] per reaction to get a final concentration of 2 μM ATP. • 5. Made up to 25 μl total volume with ddH2O • 6. Incubated for 20 min at 30° C. in a water bath • 7. Used the PKLight Kinase assay (Cambrex, UK), add to each reaction 10 μl of stop reaction and mix thoroughly. Incubated at room temp for 10 min. • 8. Added 20 μ1 Luciferase reaction mixture (Cambrex, UK) per reaction, and further incubated at room temp for 10 mins and determined luciferase activities according to manufacturer's methods. Kinase reactions were added to 96 well microplates and luciferase activities determined using a Packard TopCount NXT™ luminescent counter (TopCount 9904). The luminometer was programmed to take a read time of 0.1 integrated reading and emission of light was detectable at 560 nm. • 9. All kinase inhibition assays were carried out in triplicate. As the bioluminescent signal is inversely proportional to kinase activity, all values were deducted from the no enzyme control. These values were then plotted utilizing the enzyme control as a reference to 100% activity and compared to all other values.

CDK2/cyclin A complex = biological target: T2, CDK2/cyclin A complex (Homo sapiens, UniProt P24941); assay: CDK2/cyclin A kinase assay (as for CDK7); format: biochemical; details: for remaining activity at 0.1 µM: 100 nM, mean of three (standard deviation), read-out: CDK2 % remaining kinase activity after incubation with 100 nM of compound; for IC50: Table 7, mean of three experiments, read-out: CDK2 kinase inhibition in vitro (IC50)
T2 construct: purchased Proqinase GmbH, Germany
Protocol: as §1
(§2) Inhibition of CDK2 was assessed using 50 ng CDK2/cyclin A complex (Proqinase GmbH, Germany), as above for CDK7 Inhibition of CDK9 was assessed using 100 ng CDK9/cyclin T complex (Proqinase GmbH, Germany), as above for CDK7.

MCF-7 cell line = assay: cells; format: cell-based; details: Homo sapiens, MCF-7, SRB assay, 24 hours; for LC50 (concentration causing 50% net cell kill) / IC (total growth inhibition): MCF7, 24 h; for IC (total growth inhibition): read-out: TGI; for IC50: MCF7, mean of three experiments, read-out: IC50
Protocol: In the SRB assay, sixteen hours following seeding of 3×10^3 MCF-7 cells in 96-well plates in DMEM containing 10% FCS, the medium was replaced with fresh medium supplemented with the compound of interest, or an equivalent volume of the vehicle control (DMSO), at concentrations, ranging from 0.1 to 100 μM. The compounds were added to three well to provide replicates. The cells were fixed after 24 hours, using 40% (w/v) TCA, for one hour at 4° C., washed five times with distilled, deionised H2O, followed by incubation with 0.4% (w/v) sulphorhodamine B (SRB) in 1% acetic acid for one hour at room temperature. Excess dye was removed with five washes with 1% acetic acid and drying at room temperature. Absorbance at 480 nm was determined following solubilisation of the dye by the addition of 100 μl of 10 mM Tris base to each well.
SRB values (absorbance at 480 nm) for the vehicle control (DMSO) were set at 100% and absorbance at 480 nm for the compound treatments were calculated relative to the control.

CDK9/cyclin T complex = biological target: T3, CDK9/cyclin T complex (Homo sapiens, UniProt P50750); assay: CDK9/cyclin T kinase assay (as for CDK7); format: biochemical; details: 100 nM; mean of three (standard deviation); read-out: CDK9 % remaining kinase activity after incubation with 100 nM of compound
T3 construct: purchased Proqinase GmbH, Germany
Protocol: as §1, §2

CDK4 = CDK4 (Homo sapiens, UniProt P11802); assay: CDK4 in vitro kinase inhibition (protocol similar to Example 14); format: biochemical
Protocol: as §1
(§3) This example provides in vitro kinase inhibition data for various compounds within the scope of the invention versus CDK 2, CDK 4, CDK, 5, CDK 7 and CDK 9. The protocol was similar to that shown in Example 14 Inhibition of the protein kinases was performed in triplicate using each compound at 100 nM.
(§4) This example provides in vitro kinase inhibition data for various compounds within the scope of the invention versus CDK 2, CDK 4, CDK, 5, CDK 7 and CDK 9.

CDK 5 = CDK 5 (Homo sapiens, UniProt Q00535); assay: CDK5 in vitro kinase inhibition (protocol similar to Example 14); format: biochemical; details: 100 nM; mean of three (standard deviation); read-out: CDK5 % remaining kinase activity after incubation with 100 nM of compound
Protocol: as §1, §3, §4

T1 sequence (P50613 whole entry): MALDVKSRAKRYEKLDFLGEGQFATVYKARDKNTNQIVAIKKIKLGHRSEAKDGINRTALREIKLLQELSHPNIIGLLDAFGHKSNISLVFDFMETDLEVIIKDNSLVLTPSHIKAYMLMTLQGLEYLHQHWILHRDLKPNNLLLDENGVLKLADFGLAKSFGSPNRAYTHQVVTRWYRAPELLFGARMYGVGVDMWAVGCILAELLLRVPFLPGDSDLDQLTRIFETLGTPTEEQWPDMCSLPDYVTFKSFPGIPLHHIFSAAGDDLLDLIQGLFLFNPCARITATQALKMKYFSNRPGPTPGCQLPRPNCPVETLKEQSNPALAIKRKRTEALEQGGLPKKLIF
T1 sequence (P51946 whole entry partner): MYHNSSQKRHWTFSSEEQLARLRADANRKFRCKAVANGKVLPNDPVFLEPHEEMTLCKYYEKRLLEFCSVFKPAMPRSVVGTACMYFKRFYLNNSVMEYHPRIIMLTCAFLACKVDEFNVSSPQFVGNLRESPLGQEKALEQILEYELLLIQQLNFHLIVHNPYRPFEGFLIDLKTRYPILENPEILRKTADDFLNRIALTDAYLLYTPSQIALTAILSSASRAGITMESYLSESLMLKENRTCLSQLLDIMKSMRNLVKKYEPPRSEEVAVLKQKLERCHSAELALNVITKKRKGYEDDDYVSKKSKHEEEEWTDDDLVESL
T1 sequence (P51948 whole entry partner): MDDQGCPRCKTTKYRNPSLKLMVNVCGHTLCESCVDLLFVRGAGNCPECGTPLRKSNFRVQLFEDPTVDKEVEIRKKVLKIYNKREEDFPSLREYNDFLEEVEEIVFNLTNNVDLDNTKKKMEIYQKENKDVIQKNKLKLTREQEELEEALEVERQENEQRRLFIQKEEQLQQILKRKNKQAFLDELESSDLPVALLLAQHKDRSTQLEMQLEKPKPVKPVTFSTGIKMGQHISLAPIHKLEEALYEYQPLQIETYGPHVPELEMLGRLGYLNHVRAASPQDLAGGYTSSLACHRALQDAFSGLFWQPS
CDK4, sequence (P11802 whole entry): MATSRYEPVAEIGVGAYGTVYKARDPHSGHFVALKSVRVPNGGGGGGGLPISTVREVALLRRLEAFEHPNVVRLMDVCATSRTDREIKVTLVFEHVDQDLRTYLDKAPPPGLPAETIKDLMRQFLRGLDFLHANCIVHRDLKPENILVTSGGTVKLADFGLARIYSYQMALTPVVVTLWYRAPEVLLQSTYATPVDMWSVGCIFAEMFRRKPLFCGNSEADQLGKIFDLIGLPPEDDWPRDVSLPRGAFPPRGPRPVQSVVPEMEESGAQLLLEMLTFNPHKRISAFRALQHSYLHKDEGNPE
CDK4, sequence (P24385 whole entry partner): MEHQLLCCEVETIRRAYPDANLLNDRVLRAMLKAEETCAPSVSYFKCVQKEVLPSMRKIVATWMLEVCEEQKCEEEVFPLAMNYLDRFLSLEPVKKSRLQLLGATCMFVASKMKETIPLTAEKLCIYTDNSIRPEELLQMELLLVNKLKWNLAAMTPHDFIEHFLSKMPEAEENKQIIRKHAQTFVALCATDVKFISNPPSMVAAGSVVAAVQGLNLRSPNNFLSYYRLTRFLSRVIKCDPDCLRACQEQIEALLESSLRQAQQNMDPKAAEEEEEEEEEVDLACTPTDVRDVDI
T3 sequence (P50750 whole entry): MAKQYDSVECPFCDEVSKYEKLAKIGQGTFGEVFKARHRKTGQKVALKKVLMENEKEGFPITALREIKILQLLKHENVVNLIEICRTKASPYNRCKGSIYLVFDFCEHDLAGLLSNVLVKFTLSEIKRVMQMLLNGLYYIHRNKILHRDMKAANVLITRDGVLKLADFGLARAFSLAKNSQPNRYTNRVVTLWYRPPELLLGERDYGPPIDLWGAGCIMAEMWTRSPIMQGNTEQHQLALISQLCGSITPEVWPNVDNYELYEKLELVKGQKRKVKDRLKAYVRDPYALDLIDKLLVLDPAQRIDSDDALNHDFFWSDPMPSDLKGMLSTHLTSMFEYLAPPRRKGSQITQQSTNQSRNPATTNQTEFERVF
T3 sequence (O60563 whole entry partner): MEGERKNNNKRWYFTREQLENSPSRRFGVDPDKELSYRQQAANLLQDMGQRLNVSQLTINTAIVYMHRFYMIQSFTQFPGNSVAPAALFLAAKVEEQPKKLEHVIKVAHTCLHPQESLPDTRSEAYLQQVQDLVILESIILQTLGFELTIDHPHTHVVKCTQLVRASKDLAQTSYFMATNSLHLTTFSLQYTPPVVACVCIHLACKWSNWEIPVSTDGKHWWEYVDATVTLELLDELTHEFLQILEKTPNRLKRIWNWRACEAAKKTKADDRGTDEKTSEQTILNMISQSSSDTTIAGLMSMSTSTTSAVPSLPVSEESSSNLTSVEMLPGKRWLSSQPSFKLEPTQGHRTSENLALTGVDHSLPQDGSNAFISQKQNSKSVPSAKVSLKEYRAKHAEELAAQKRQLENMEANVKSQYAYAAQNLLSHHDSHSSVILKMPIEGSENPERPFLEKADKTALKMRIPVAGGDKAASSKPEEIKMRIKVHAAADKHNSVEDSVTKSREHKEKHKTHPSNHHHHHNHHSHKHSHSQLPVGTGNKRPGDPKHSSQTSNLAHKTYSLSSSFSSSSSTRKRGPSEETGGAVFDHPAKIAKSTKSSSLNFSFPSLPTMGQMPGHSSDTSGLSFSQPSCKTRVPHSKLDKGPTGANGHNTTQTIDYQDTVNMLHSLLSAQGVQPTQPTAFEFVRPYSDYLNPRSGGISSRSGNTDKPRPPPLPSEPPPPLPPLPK
CDK 5, sequence (Q00535 whole entry): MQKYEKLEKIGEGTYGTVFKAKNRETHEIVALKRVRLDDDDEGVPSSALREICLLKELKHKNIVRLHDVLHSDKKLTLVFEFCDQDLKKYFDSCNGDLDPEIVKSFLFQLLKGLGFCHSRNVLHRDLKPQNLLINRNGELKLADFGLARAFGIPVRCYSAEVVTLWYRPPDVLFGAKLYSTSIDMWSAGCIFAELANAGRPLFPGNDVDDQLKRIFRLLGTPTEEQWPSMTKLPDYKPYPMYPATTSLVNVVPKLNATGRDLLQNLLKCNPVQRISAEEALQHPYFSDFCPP
CDK 5, sequence (Q15078 whole entry partner): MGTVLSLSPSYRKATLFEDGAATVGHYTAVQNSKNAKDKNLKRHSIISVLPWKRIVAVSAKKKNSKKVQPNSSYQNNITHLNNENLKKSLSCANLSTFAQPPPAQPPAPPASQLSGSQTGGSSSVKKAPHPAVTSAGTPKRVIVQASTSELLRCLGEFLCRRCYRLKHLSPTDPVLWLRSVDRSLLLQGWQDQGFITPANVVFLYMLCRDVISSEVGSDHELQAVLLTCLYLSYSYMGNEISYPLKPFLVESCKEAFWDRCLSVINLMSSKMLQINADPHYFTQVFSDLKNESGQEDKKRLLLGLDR

SMILES	remaining activity at 0.1 µM [1] [%]	remaining activity at 0.1 µM (CDK2/cyclin A complex) [%]	LC50 (concentration causing 50% net cell kill) (MCF-7 cell line) [µM]	IC (total growth inhibition) (MCF-7 cell line) [µM]	IC50 (MCF-7 cell line) [µM]	IC50 (CDK2/cyclin A complex) [µM]	remaining activity at 0.1 µM (CDK9/cyclin T complex) [%]	remaining activity at 0.1 µM (CDK4; 100 nM, mean of three (standard deviation), read-out: CDK4 % remaining kinase activity after incubation with 100 nM of compound) [%]	IC50 (CDK4; Table 7, mean of three experiments) [µM]	remaining activity at 0.1 µM (CDK 5) [%]
CC(C)c1cnn2c(NCc3ccccc3F)cc(NCCN3CCNCC3)nc12 [ICEC0218]	60	75	–	–	–	–	–	–	–	–
CC(C)c1cnn2c(NCc3ccccc3F)cc(N[C@H]3CC[C@H](N)CC3)nc12 [ICEC0229]	54	60	27	42	109	–	–	–	–	–
CC(C)c1cnn2c(N[C@@H](C)c3ccccc3)cc(NCCCCCCNc3cc(N[C@@H](C)c4ccccc4)n4ncc(C(C)C)c4n3)nc12 [ICEC0236]	91	68	11	28	46	–	–	–	–	–
CC(C)c1cnn2c(NCc3ccccc3)cc(N[C@@H](CO)CCCCCCCc3cccnc3)nc12 [ICEC0238]	77	67	11	28	46	–	–	–	–	–
CC(C)c1cnn2c(NCc3ccc(Cl)cc3Cl)cc(Cl)nc12 [ICEC0239]	82	85	59	200	> 200	–	–	–	–	–
CC(C)c1cnn2c(NCc3ccc(C(F)(F)F)cc3)cc(Cl)nc12 [ICEC0240]	75	82	48	97	> 200	–	–	–	–	–
CC(C)c1cnn2c(NCc3ccccc3F)cc(NCCCCCNc3cc(NCc4ccccc4F)n4ncc(C(C)C)c4n3)nc12 [ICEC0241]	73	77	75	> 200	> 200	–	–	–	–	–
CC(C)c1cnn2c(NCc3ccc(Cl)cc3)cc(Cl)nc12 [ICEC0244]	81	73	59	117	> 200	–	–	–	–	–
CC(C)c1cnn2c(NCc3ccccc3)cc(NCCN3CCOCC3)nc12 [ICEC0259]	54	88	41	79	> 200	–	–	–	–	–
CC(C)c1cnn2c(N[C@H](C)c3ccccc3)cc(NCCCCCCN)nc12 [ICEC0274]	100	96	8	23	200	0.03	–	–	–	–
CC(C)c1cnn2c(NCc3ccccc3)cc(NCCCCN)nc12 [ICEC0277]	12.6	89	40	–	–	–	–	–	–	–
CC(C)c1cnn2c(NCc3ccccc3)cc(NCC/C=C/CCN)nc12 [ICEC0278]	21	72	45	–	–	–	–	–	–	–
CC(C)c1cnn2c(NCc3cccc(OS(=O)(=O)c4cccc5c(N(C)C)cccc45)c3)cc(NCCCCCN)nc12 [ICEC0289]	47	79	19	–	–	–	–	–	–	–
CC(C)c1cnn2c(NCc3ccccc3)cc(N[C@@H](CO)CCCCCCc3cncnc3)nc12 [ICEC-0174]	–	31.5	35	> 100	> 100	0.1	92	99	> 1	97
